Data published in patent publication US20090131494A1, “Non-Nucleoside Reverse Transcriptase Inhibitors” (priority 2005, published 2009).
Like-named read-outs stand apart in the source and are kept apart here.

What was measured:
[1] = tested on: acute HIV infection of T-lymphoid cells; experiment: Assay for inhibition of HIV replication (spread assay); format: cell-based; details: read-out: IC95, inhibition of HIV replication in spread assay
Experimental: An assay for the inhibition of acute HIV infection of T-lymphoid cells (alternatively referred to herein as the “spread assay”) was conducted in accordance with Vacca, J. P. et al., Proc. Natl. Acad. Sci. USA 1994, 91: 4096.

[2] = target: T1, mutant HIV reverse transcriptase, K103N mutation (Human immunodeficiency virus type 1 group M subtype B, UniProt P04585, K690N); experiment: Analogous RT inhibition assay, K103N mutant; format: biochemical; details: RT with K103N mutation
T1 construct: made in house
Experimental: Analogous assays were conducted substituting mutant HIV strains to determine the […] inhibition of compounds of the present invention against mutant HIV reverse transcriptase. In one strain the reverse transcriptase has the Y181C mutation and in the other strain the reverse transcriptase has the K103N mutation. The mutations were generated with the […] site-directed mutagenesis kit (Stratagene).

[3] = Human immunodeficiency virus 1, T-lymphoid cells, tested up to 10 micromolar
[4] = Human immunodeficiency virus 1, T-lymphoid

| Structure (SMILES) | IC95 [1, 3] | IC95 [1, 4] | IC50 [2] |
| --- | --- | --- | --- |
| CCOC(=O)c1[nH]c2ccc(Cl)cc2c1SCC1CCC1 [Example 1, Ethyl 5-chloro-3-(cyclobutylmethylthio)-1H-indole-2-carboxylate] | ≤ 10 µM | – | – |
| CCOC(=O)c1[nH]c2ccc(Cl)cc2c1SCC(F)(F)F [Example 2, ethyl 5-chloro-3-[(2,2,2-trifluoroethyl)thio]-1H-indole-2-carboxylate] | > 10 µM | – | – |
| CCOC(=O)c1[nH]c2ccc(Cl)cc2c1SCCC(F)(F)F [Example 3, ethyl 5-chloro-3-[(3,3,3-trifluoropropyl)thio]-1H-indole-2-carboxylate] | ≤ 10 µM | – | – |
| CCOC(=O)c1[nH]c2ccc(Cl)cc2c1SCCCC(F)(F)F [Example 4, ethyl 5-chloro-3-[(4,4,4-trifluorobutyl)thio]-1H-indole-2-carboxylate] | > 10 µM | – | – |
| CCOC(=O)c1[nH]c2ccc(Cl)cc2c1SCC(F)(F)C(F)(F)F [Example 5, ethyl 5-chloro-3-[(2,2,3,3,3-pentafluoropropyl)thio]-1H-indole-2-carboxylate] | ≤ 10 µM | – | – |
| CCOC(=O)c1[nH]c2ccc(Cl)cc2c1SC1CC1 [Example 6, ethyl 5-chloro-3-(cyclopropylthio)-1H-indole-2-carboxylate] | > 10 µM | – | – |
| CCOC(=O)c1[nH]c2ccc(Cl)cc2c1SCCC1CC1 [Example 8, ethyl 5-chloro-3-[(2-cyclopropylethyl)thio]-1H-indole-2-carboxylate] | ≤ 10 µM | – | – |
| CCOC(=O)c1[nH]c2ccc(Cl)cc2c1SC1CCC1 [Example 9, ethyl 5-chloro-3-(cyclobutylthio)-1H-indole-2-carboxylate] | ≤ 10 µM | – | – |
| CCOC(=O)c1[nH]c2ccc(Cl)cc2c1SC1CCCC1 [Example 10, ethyl 5-chloro-3-(cyclopentylthio)-1H-indole-2-carboxylate] | ≤ 10 µM | – | – |
| CCOC(=O)c1[nH]c2ccc(Cl)cc2c1SCC1CCCCC1 [Example 11, ethyl 5-chloro-3-[(cyclohexylmethyl)thio]-1H-indole-2-carboxylate] | – | ≤ 10 µM | – |
| CCOC(=O)c1[nH]c2ccc(Cl)cc2c1SC1CCCCC1 [Example 12, Ethyl 5-chloro-3-(cyclohexylthio)-1H-indole-2-carboxylate] | ≤ 10 µM | – | – |
| CCOC(=O)c1[nH]c2ccc(Cl)cc2c1S(=O)(=O)CC1CCC1 [Example 13, Ethyl 5-chloro-3-(cyclobutylmethylsulfonyl)-1H-indole-2-carboxylate] | ≤ 10 µM | – | – |
| CCOC(=O)c1[nH]c2ccc(Cl)cc2c1S(=O)(=O)CCC(F)(F)F [Example 14, ethyl 5-chloro-3-[(3,3,3-trifluoropropyl)sulfonyl]-1H-indole-2-carboxylate] | > 10 µM | – | – |
| CCOC(=O)c1[nH]c2ccc(Cl)cc2c1S(=O)(=O)CCCC(F)(F)F [Example 15, ethyl 5-chloro-3-[(4,4,4,-trifluorobutyl)sulfonyl]-1H-indole-2-carboxylate] | > 10 µM | – | – |
| CCOC(=O)c1[nH]c2ccc(Cl)cc2c1S(=O)(=O)C1CC1 [Example 16, ethyl 5-chloro-3-(cyclopropylsulfonyl)-1H-indole-2-carboxylate] | > 10 µM | – | – |
| CCOC(=O)c1[nH]c2ccc(Cl)cc2c1S(=O)(=O)CC1CC1 [Example 17, ethyl 5-chloro-3-[(cyclopropylmethyl)sulfonyl]-1H-indole-2-carboxylate] | ≤ 10 µM | – | – |
| CCOC(=O)c1[nH]c2ccc(Cl)cc2c1S(=O)(=O)CCC1CC1 [Example 18, ethyl 5-chloro-3-[(2-cyclopropylethyl)sulfonyl]-1H-indole-2-carboxylate] | ≤ 10 µM | – | – |
| CCOC(=O)c1[nH]c2ccc(Cl)cc2c1S(=O)(=O)C1CCC1 [Example 19, ethyl 5-chloro-3-(cyclobutylsulfonyl)-1H-indole-2-carboxylate] | > 10 µM | – | – |
| CCOC(=O)c1[nH]c2ccc(Cl)cc2c1S(=O)(=O)C1CCCC1 [Example 20, ethyl 5-chloro-3-(cyclopentylsulfonyl)-1H-indole-2-carboxylate] | > 10 µM | – | – |

| Structure (SMILES) | IC95 [1, 3] | IC95 [1, 4] | IC50 [2] |
| --- | --- | --- | --- |
| CCOC(=O)c1[nH]c2ccc(Cl)cc2c1S(=O)(=O)C1CCCCC1 [Example 21, ethyl 5-chloro-3-(cyclohexylsulfonyl)-1H-indole-2-carboxylate] | > 10 µM | – | – |
| CCOC(=O)c1[nH]c2ccc(Cl)cc2c1S(=O)(=O)CC1CCCCC1 [Example 22, ethyl 5-chloro-3-[(cyclohexylmethyl)sulfonyl]-1H-indole-2-carboxylate] | – | ≤ 10 µM | – |
| NC(=O)c1[nH]c2ccc(Cl)cc2c1S(=O)(=O)CC1CCC1 [Example 23, 5-Chloro-3-(cyclobutylmethylsulfonyl)-1H-indole-2-carboxamide] | ≤ 10 µM | – | – |
| NC(=O)c1[nH]c2ccc(Cl)cc2c1S(=O)(=O)CCC(F)(F)F [Example 24, 5-chloro-3-[(3,3,3-trifluoropropyl)sulfonyl]-1H-indole-2-carboxamide] | ≤ 10 µM | – | – |
| NC(=O)c1[nH]c2ccc(Cl)cc2c1S(=O)(=O)CCCC(F)(F)F [Example 25, 5-chloro-3-[(4,4,4-trifluorobutyl)sulfonyl]-1H-indole-2-carboxamide] | ≤ 10 µM | – | – |
| NC(=O)c1[nH]c2ccc(Cl)cc2c1S(=O)(=O)C1CC1 [Example 26, 5-chloro-3-(cyclopropylsulfonyl)-1H-indole-2-carboxamide] | ≤ 10 µM | – | – |
| NC(=O)c1[nH]c2ccc(Cl)cc2c1S(=O)(=O)CC1CC1 [Example 27, 5-chloro-3-[(cyclopropylmethyl)sulfonyl]-1H-indole-2-carboxamide] | ≤ 10 µM | – | – |
| NC(=O)c1[nH]c2ccc(Cl)cc2c1S(=O)(=O)CCC1CC1 [Example 28, 5-chloro-3-[(2-cyclopropylethyl)sulfonyl]-1H-indole-2-carboxamide] | ≤ 10 µM | – | – |
| NC(=O)c1[nH]c2ccc(Cl)cc2c1S(=O)(=O)C1CCC1 [Example 29, 5-chloro-3-(cyclobutylsulfonyl)-1H-indole-2-carboxamide] | ≤ 10 µM | – | – |
| NC(=O)c1[nH]c2ccc(Cl)cc2c1S(=O)(=O)C1CCCC1 [Example 30, 5-chloro-3-(cyclopentylsulfonyl)-1H-indole-2-carboxamide] | ≤ 10 µM | – | – |
| NC(=O)c1[nH]c2ccc(Cl)cc2c1S(=O)(=O)C1CCCCC1 [Example 31, 5-chloro-3-(cyclohexylsulfonyl)-1H-indole-2-carboxamide] | ≤ 10 µM | – | – |
| NC(=O)c1[nH]c2ccc(Cl)cc2c1S(=O)(=O)C1C=CCCC1 (stereo not drawn) [Example 32, 5-chloro-3-(cyclohex-2-en-1-ylsulfonyl)-1H-indole-2-carboxamide] | ≤ 10 µM | – | – |
| NC(=O)c1[nH]c2ccc(Cl)cc2c1S(=O)(=O)CC1CCCCC1 [Example 33, 5-chloro-3-[(cyclohexylmethyl)sulfonyl]-1H-indole-2-carboxamide] | – | ≤ 10 µM | – |
| CC(CC(F)(F)F)S(=O)(=O)c1c(C(N)=O)[nH]c2ccc(Cl)cc12 (stereo not drawn) [Example 34, 5-chloro-3-[(3,3,3-trifluoro-1-methylpropyl)sulfonyl]-1H-indole-2-carboxamide] | ≤ 10 µM | – | – |
| NC(=O)c1[nH]c2ccc(Cl)cc2c1S(=O)(=O)CC1CC(F)(F)C1(F)F (stereo not drawn) [Example 37] | ≤ 10 µM | – | – |
| NC(=O)c1[nH]c2ccc(Cl)cc2c1S(=O)(=O)CC(F)(F)C(F)F [Example 38, 5-chloro-3-[(2,2,3,3-tetrafluoropropyl)sulfonyl]-1H-indole-2-carboxamide] | > 10 µM | – | – |
| CC(C)CCS(=O)(=O)c1c(C(=O)NCc2nccn2C)[nH]c2ccc(Cl)cc12 [Example 39, 5-Chloro-3-[(3-methylbutyl)sulfonyl]-N-[(1-methyl-1H-imidazol-2-yl)methyl]-1-indole-2-carboxamid-indole-2-carboxamide] | ≤ 10 µM | – | < 2 µM |
| CC(C)CCS(=O)(=O)c1c(C(=O)NCc2n[nH]c3ccccc23)[nH]c2ccc(Cl)cc12 [Example 40, 5-Chloro-N-(1H-indazol-3-ylmethyl)-3-[(3-methylbutyl)sulfonyl]-1H-indole-2-carboxamide] | ≤ 10 µM | – | < 2 µM |
